Source: article PMC11285948, “The effects of CYP2B6 inactivators on the metabolism of ciprofol” (PLOS ONE, 2024)
Where “and” joins values, the source holds several entries; their conditions need not be identical. Identical values can stand only once.

Tests used:
[1] = system: rat liver microsomes (RLMs); assay: Ciprofol metabolism in RLM incubation system (incubation time, protein concentration, enzyme kinetics); type: in vitro ADME; conditions: for reduction of ciprofol ΔC (Enzymatic reaction kinetics): ΔC1-ΔC3 and Mean; for ciprofol concentration in incubation system (Incubation time) / ciprofol concentration in incubation system (Liver microsomal protein concentration): C1-C3 and Mean; for ciprofol concentration in incubation system (Liver microsomal protein concentration): RLMs, ciprofol 25 μg·mL^-1, 40 min
Description: The volume of the incubation system was 200 μL and included 2 μL of substrate (ciprofol), 8 μL of rat liver microsomes (RLMs) or 6 μL of human liver microsomes (HLMs), 12 μL of NADPH generation system of solution (solution A 10 μL, solution B 2 μL), and the remaining volume was PBS. The incubation was performed in a water bath at a constant temperature of 37°C, and each sample was incubated three times in parallel.
The incubation system was removed from the water bath, and the reaction was terminated immediately by adding 800 μL of reaction termination solution (acetonitrile solution containing 5 μg·mL^-1 D6-ciprofol at 4°C). The mixture was vortexed for 2 min and centrifuged for 15 min, after which the supernatant was transferred to an autosampler vial for HPLC-MS/MS detection.
The concentrations of ciprofol and liver microsomal proteins in the RLM incubation system were set at 25 μg·mL^-1 and 0.8 mg·mL^-1, respectively, whereas those in the HLM incubation system were set at 40 μg·mL^-1 and 0.6 mg·mL^-1, respectively. Samples were obtained and assayed after 0, 10, 20, 30, 40, 60, 80, 100 and 120 min of incubation, and the optimum incubation time was determined according to the decreasing trend in ciprofol concentration.
The ciprofol concentrations in the RLM and HLM incubation systems were set at 25 and 40 μg·mL^-1, respectively. The liver microsomal protein concentrations were 0, 0.1, 0.2, 0.4, 0.6, 0.8 and 1.0 mg·mL^-1. The optimal protein concentration in the incubation system was determined based on the reduction of ciprofol (ΔC) after 40 min of incubation in RLMs and 60 min in HLMs.
The liver microsomal protein concentrations in the RLM incubation system and the HLM incubation system were 0.8 mg·mL^-1 and 0.6 mg·mL^-1, and the cells were incubated for 40 min and 60 min, respectively. The ciprofol concentrations in the incubation system were set at 4, 8, 16, 32, 48 and 80 μg·mL^-1, and the kinetic parameters of ciprofol metabolism were investigated based on ΔC values at different initial ciprofol concentrations (C0).
The substrate elimination method was employed in this study, and GraphPad Prism 8.0.2 software was used for statistical processing, including determination of the kinetic parameters of ciprofol metabolism and the IC50 values of psoralen and clopidogrel for ciprofol metabolism. The maximum velocity (Vmax), Michaelis constant (Km) and intrinsic clearance (CLint) were calculated using the […]: V=Vmax×[S]/Km+[S] CLint=Vmax/Km

[2] = Stability of ciprofol QC samples in rat plasma; type: physicochemical; design: calculated concentration, mean: unit: ng/mL; conditions: for ciprofol found after storage, Autosampler / ciprofol found after storage, Room Temperature / ciprofol found after storage, Freeze–Thaw / ciprofol found after storage, Long-Term Storage: n = 5
Description: 5 μL of IS solution (2.5 μg·mL^-1 D6-ciprofol) was added to 100 μL of plasma and mixed. Then, 300 μL of acetonitrile was added. The mixture was vortexed for 2 min and centrifuged for 10 min, and the supernatant was transferred to an autosampler vial for HPLC-MS/MS detection.
To investigate the stability of ciprofol under a variety of conditions, three groups of liver microsome QC sample solutions were prepared, and one group was immediately processed and analysed as described in Section 2.4.2. Another group was stored at room temperature for 8 hours before treatment and assessment. The other group was treated and placed in the autosampler (4°C) for 24 h and subsequently analysed. In addition, simulated plasma QC samples were prepared in five groups: one group was processed and measured immediately as described in Section 2.4.3, and another group was placed in the autosampler for 24 h after treatment. The other three groups were placed at room temperature for 8 h, stored at -40°C for 30 d, frozen and thawed three times, respectively, and then processed and detected as described in Section 2.4.3. All the above samples were tested in parallel in five batches.

## CC(C)c1cccc([C@H](C)C2CC2)c1O [ciprofol]
[1]; RLMs 0.8 mg·mL^-1, 40 min
  Km of ciprofol metabolism: 25.11 µg/mL
  Vmax of ciprofol metabolism: 14.06 ng·min^-1·mg protein^-1
[1]; RLMs 0.8 mg·mL^-1, 40 min, initial ciprofol C 4 μg/mL
  reduction of ciprofol ΔC (Enzymatic reaction kinetics): 2.12 µg/mL and 1.71 µg/mL and 2.14 µg/mL and 1.99 µg/mL
[1]; RLMs 0.8 mg·mL^-1, 40 min, initial ciprofol C 8 μg/mL
  reduction of ciprofol ΔC (Enzymatic reaction kinetics): 3.40 µg/mL and 3.72 µg/mL and 3.90 µg/mL and 3.68 µg/mL
[1]; RLMs 0.8 mg·mL^-1, 40 min, initial ciprofol C 16 μg/mL
  reduction of ciprofol ΔC (Enzymatic reaction kinetics): 5.07 µg/mL and 6.04 µg/mL and 4.94 µg/mL and 5.35 µg/mL
[1]; RLMs 0.8 mg·mL^-1, 40 min, initial ciprofol C 32 μg/mL
  reduction of ciprofol ΔC (Enzymatic reaction kinetics): 7.10 µg/mL and 8.64 µg/mL and 7.63 µg/mL and 7.79 µg/mL
[1]; RLMs 0.8 mg·mL^-1, 40 min, initial ciprofol C 48 μg/mL
  reduction of ciprofol ΔC (Enzymatic reaction kinetics): 9.57 µg/mL and 8.62 µg/mL and 8.97 µg/mL and 9.05 µg/mL
[1]; RLMs 0.8 mg·mL^-1, 40 min, initial ciprofol C 80 μg/mL
  reduction of ciprofol ΔC (Enzymatic reaction kinetics): 10.20 µg/mL and 11.72 µg/mL and 10.73 µg/mL and 10.88 µg/mL
[1]; RLMs 0.8 mg·mL^-1, ciprofol 25 μg·mL^-1, T 0 min
  ciprofol concentration in incubation system (Incubation time): 25.04 µg/mL and 26.05 µg/mL and 27.04 µg/mL and 26.04 µg/mL
[1]; RLMs 0.8 mg·mL^-1, ciprofol 25 μg·mL^-1, T 10 min
  ciprofol concentration in incubation system (Incubation time): 21.96 µg/mL and 25.48 µg/mL and 25.19 µg/mL and 24.21 µg/mL
[1]; RLMs 0.8 mg·mL^-1, ciprofol 25 μg·mL^-1, T 20 min
  ciprofol concentration in incubation system (Incubation time): 20.63 µg/mL and 19.64 µg/mL and 23.74 µg/mL and 21.34 µg/mL
[1]; RLMs 0.8 mg·mL^-1, ciprofol 25 μg·mL^-1, T 30 min
  ciprofol concentration in incubation system (Incubation time): 17.46 µg/mL and 18.48 µg/mL and 22.67 µg/mL and 19.53 µg/mL
[1]; RLMs 0.8 mg·mL^-1, ciprofol 25 μg·mL^-1, T 40 min
  ciprofol concentration in incubation system (Incubation time): 16.32 µg/mL and 16.15 µg/mL and 19.54 µg/mL and 17.34 µg/mL
[1]; RLMs 0.8 mg·mL^-1, ciprofol 25 μg·mL^-1, T 60 min
  ciprofol concentration in incubation system (Incubation time): 15.01 µg/mL and 16.57 µg/mL and 18.99 µg/mL and 16.86 µg/mL
[1]; RLMs 0.8 mg·mL^-1, ciprofol 25 μg·mL^-1, T 80 min
  ciprofol concentration in incubation system (Incubation time): 13.80 µg/mL and 14.14 µg/mL and 18.20 µg/mL and 15.38 µg/mL
[1]; RLMs 0.8 mg·mL^-1, ciprofol 25 μg·mL^-1, T 100 min
  ciprofol concentration in incubation system (Incubation time): 12.48 µg/mL and 12.69 µg/mL and 17.81 µg/mL and 14.32 µg/mL
[1]; RLMs 0.8 mg·mL^-1, ciprofol 25 μg·mL^-1, T 120 min
  ciprofol concentration in incubation system (Incubation time): 11.61 µg/mL and 11.81 µg/mL and 16.86 µg/mL and 13.43 µg/mL
[1]; Cprotein 0 mg/mL
  ciprofol concentration in incubation system (Liver microsomal protein concentration): 24.55 µg/mL and 25.68 µg/mL and 26.29 µg/mL and 25.50 µg/mL
[1]; Cprotein 0.1 mg/mL
  ciprofol concentration in incubation system (Liver microsomal protein concentration): 23.43 µg/mL and 22.66 µg/mL and 24.40 µg/mL and 23.50 µg/mL
[1]; Cprotein 0.2 mg/mL
  ciprofol concentration in incubation system (Liver microsomal protein concentration): 21.66 µg/mL and 22.34 µg/mL and 19.74 µg/mL and 21.25 µg/mL
[1]; Cprotein 0.4 mg/mL
  ciprofol concentration in incubation system (Liver microsomal protein concentration): 19.22 µg/mL and 19.23 µg/mL and 17.57 µg/mL and 18.67 µg/mL
[1]; Cprotein 0.6 mg/mL
  ciprofol concentration in incubation system (Liver microsomal protein concentration): 19.49 µg/mL and 17.16 µg/mL and 15.28 µg/mL and 17.31 µg/mL
[1]; Cprotein 0.8 mg/mL
  ciprofol concentration in incubation system (Liver microsomal protein concentration): 18.46 µg/mL and 15.72 µg/mL and 14.74 µg/mL and 16.31 µg/mL
[1]; Cprotein 1 mg/mL
  ciprofol concentration in incubation system (Liver microsomal protein concentration): 17.05 µg/mL and 19.78 µg/mL and 13.60 µg/mL and 16.81 µg/mL
[2]; QC sample level H, mean of H1-H5
  calculated concentration, mean: 1597.51
[2]; rat plasma, QC 30 ng·mL^-1, autosampler for 24 h after treatment
  ciprofol found after storage, Autosampler: 32.80 ± 1.93 ng/mL
[2]; rat plasma, QC 30 ng·mL^-1, room temperature for 8 h
  ciprofol found after storage, Room Temperature: 30.50 ± 2.27 ng/mL
[2]; rat plasma, QC 30 ng·mL^-1, three freeze–thaw cycles
  ciprofol found after storage, Freeze–Thaw: 33.49 ± 2.03 ng/mL
[2]; rat plasma, QC 30 ng·mL^-1, −40°C for 30 days
  ciprofol found after storage, Long-Term Storage: 32.70 ± 2.85 ng/mL
[2]; rat plasma, QC 250 ng·mL^-1, autosampler for 24 h after treatment
  ciprofol found after storage, Autosampler: 250.78 ± 12.31 ng/mL
[2]; rat plasma, QC 250 ng·mL^-1, room temperature for 8 h
  ciprofol found after storage, Room Temperature: 227.31 ± 5.60 ng/mL
[2]; rat plasma, QC 250 ng·mL^-1, three freeze–thaw cycles
  ciprofol found after storage, Freeze–Thaw: 245.21 ± 3.43 ng/mL
[2]; rat plasma, QC 250 ng·mL^-1, −40°C for 30 days
  ciprofol found after storage, Long-Term Storage: 242.73 ± 9.08 ng/mL
[2]; rat plasma, QC 1600 ng·mL^-1, autosampler for 24 h after treatment
  ciprofol found after storage, Autosampler: 1576.27 ± 41.67 ng/mL
[2]; rat plasma, QC 1600 ng·mL^-1, room temperature for 8 h
  ciprofol found after storage, Room Temperature: 1464.24 ± 98.79 ng/mL
[2]; rat plasma, QC 1600 ng·mL^-1, three freeze–thaw cycles
  ciprofol found after storage, Freeze–Thaw: 1604.92 ± 96.88 ng/mL
[2]; rat plasma, QC 1600 ng·mL^-1, −40°C for 30 days
  ciprofol found after storage, Long-Term Storage: 1597.51 ± 83.93 ng/mL
[2]; rat plasma, -40℃ for 30 d, QC level L
  Stability: mean calculated concentration: 31.38 ng/mL
[2]; rat plasma, -40℃ for 30 d, QC level L, single replicates
  Stability: calculated concentration: 34.12 ng/mL and 32.66 ng/mL and 29.27 ng/mL and 33.13 ng/mL and 27.74 ng/mL
